Source: ChEMBL document CHEMBL5120770, “Sarubicinols A-C, Cytotoxic Benzoxazoles from a Streptomyces” (J Nat Prod, 2022)
pIC50: −log10 of the molar value.

Tests used:
Format in all cases: functional, cell-based
A549 = assay: Cytotoxicity against human A549 cells assessed as cell growth inhibition incubated for 72 hrs by CCK8 assay; settings: A549, 72 h
HepG2 = assay: Cytotoxicity against human HepG2 cells assessed as cell growth inhibition incubated for 72 hrs by CCK8 assay; settings: HepG2, 72 h
HCT-116 = assay: Cytotoxicity against human HCT-116 cells assessed as cell growth inhibition incubated for 72 hrs by CCK8 assay; settings: HCT-116, 72 h
4T1 = assay: Cytotoxicity against mouse 4T1 cells assessed as cell growth inhibition incubated for 72 hrs by CCK8 assay; settings: 4T1, 72 h

SMILES	pIC50 (A549)	pIC50 (HepG2)	pIC50 (HCT-116)	pIC50 (4T1)
CC(=O)c1cccc2c1C(=O)C(N)=C(C(N)=O)C2=O	4.87	5.20	4.83	5.12
C[C@H]1O[C@@H]2C[C@@H](O)[C@@]1(O)c1c2c(O)c(C(N)=O)c2nc([C@@H](O)[C@@H](O)CO)oc12	5.32	5.25	5.36	5.37
CC(O)c1cccc2c1C(=O)C(N)=C(C(N)=O)C2=O (stereo unspecified)	6.05	5.72	5.68	5.89
NC(=O)C1=C(N)C(=O)c2c(O)cccc2C1=O	5.08	5.05	4.94	4.83
C[C@H]1O[C@@H]2C[C@@H](O)[C@@]1(O)C1=C2C(=O)C(C(N)=O)=C(N)C1=O	5.85	5.92	6.15	6.05
C[C@H]1O[C@@H]2C[C@@H](O)[C@@]1(O)c1c2c(O)c(C(N)=O)c2ncoc12	5.14	4.91	5.17	5.24
C[C@H]1O[C@@H]2C[C@@H](O)[C@@]1(O)c1c2c(O)c(C(N)=O)c2nc([C@@H](O)CO)oc12	5.19	5.05	5.25	5.32
COc1cccc2c1C(=O)c1c(O)c3c(c(O)c1C2=O)C[C@@](O)(C(=O)CO)C[C@@H]3O[C@H]1C[C@H](N)[C@H](O)[C@H](C)O1 [DOXORUBICIN]	–	6.89	7.10	7.05
